# Experimental data: patent publication US9872868B2, “Mitochondrially-targeted electrophilic compounds and methods of use for the treatment of cancer” (UAB Research Foundation, priority 2013, dated 2018)
# Key:
# [1] = cited from earlier work
# [2] = i.p. injection; cited from earlier work
# breast cancer cells = settings: by altering p38 and ERK signaling; cited from earlier work
# MDA-MB 231 cells = assay: Mitochondrial bioenergetic assay, Extracellular Flux Analyzer XF-24 (OCR); assay type: cell-based, human; settings: 5 μM, 4 h, 0.5% serum containing medium, vs EtOH vehicle
# Protocol: FIG. 3. Bioenergetic response of breast cancer cells to MTE. Panel A. A schematic representation of the mitochondrial bioenergetic assay in an Extracellular Flux Analyzer XF-24 (Seahorse Biosciences). Panel A: Sequential injections of oligomycin, FCCP, and Antimycin A allow determination of the component mitochondrial bioenergetic parameters. Panel B. MDA-MB 231 cells were treated for 4 h in 0.5% serum containing medium with EtOH vehicle, IBTP (5 μM), or BTPP (5 μM) and the OCR measured over time. Panel C. Comparison of basal OCR, ATP-dependent OCR, and reserve capacity (RC) with veh and IBTP treatments. Each point is the mean of a minimum of 3 determinations±SEM, from at least 2 independent experiments. Asterisks represent p<0.05. Recent work has shown that MTEs can modulate cell signaling, and depending upon the specific MTE, may do so without causing overt cellular toxicity to cancer cells or normal cells (12). MTEs are small molecules which consist of a triphenylphosphonium lipophilic cationic moiety and a leaving group such as iodide, which renders the adjacent carbon electrophilic. […] We have previously shown reserve capacity is indicative of the cells' ability to withstand a “second hit” of oxidative stress (7).
# [3] = tested on: MCF10A nontumorigenic cells; assay: Sensitization to doxorubicin in nontumorigenic cells; assay type: cell-based; settings: data not shown
# [4] = tested on: cancer or noncancer cells; assay: Cytotoxicity of the MTE alone; assay type: cell-based; settings: data not shown
# HIF-1α = HIF-1α stabilization by western blotting; assay type: cell-based, human
# Protocol: FIG. 5. Effects of an MTE on HIF-1α. MDA-MB-231 cells were incubated for 8 h under normoxia or hypoxia and were treated with either 10 μM IBTP or bTPP for 4 h. The lysates were collected and analyzed for HIF-1α stabilization by western blotting.
# However, the mechanism for this decrease in HIF-1α protein is not clear. One possibility is that IBTP inhibits the enzyme within the Krebs cycle, KGDH, that is responsible for converting α-ketoglutarate to succinyl-CoA. Inhibition of this enzyme would cause an increase in α-ketoglutarate, which is a cofactor for the prolyl hydroxylase involved in HIF-1α degradation. We propose that MTEs affect HIF-1α stabilization at least in part, by modulating the activity of KGDH and increasing intracellular levels of α-ketoglutarate. KGDH was previously shown to be among the proteins which form covalent adducts with IBTP (13). Importantly, decreased stabilization of HIF-1α prevents the bioenergetic adaptation to hypoxia in breast cancer cells, as we have recently shown (11)(in press, see Appendix 1).
# [5] = tested on: MDA-MB 231 breast cancer cells; assay: Cell adhesion (reattachment after scraping), viable non-adherent cells counted with trypan blue; assay type: cell-based, human
# Protocol: (§1) FIG. 7. Two ×10^5 cells/plate were plated on a 6-well plate, 24 hrs after plating cells were starved in 0.5% FCS containing media for another 24 hrs. Cells were then treated for another 24 hrs with increasing doses of IBTP or the non-reactive analog butyl-triphenylphosphonium (BTPP) as a control. Cells were scraped and made into single cell suspension. Cells were counted and plated in 100-mm tissue culture plate. After 24 hrs the media is collected, centrifuged and the viable cells were counted using trypan blue.
# FIG. 2. Two×10^5 cells/plate were plated on a 6-well plate, 24 hrs after plating cells were starved in 0.5% FCS containing media for another 24 hrs.
# as §1, with “Cells” for “FIG. 7. Two ×10^5 cells/plate were plated on a 6-well plate, 24 hrs after plating cells were starved in 0.5% FCS containing media for another 24 hrs. Cells”
# [6] = tested on: MDA-MB 231 breast cancer cells; assay: Cell death and clonogenic survival; assay type: cell-based
# [7] = tested on: aconitase (ACO), isocitrate dehydrogenase (IDH), and α-ketoglutarate dehydrogenase (KGDH); settings: cited from earlier work
smiles,measurement,setting,value
COC1=C(OC)C(=O)C(CCCCCCCCCC[P+](c2ccccc2)(c2ccccc2)c2ccccc2)=C(C)C1=O [mitoQ],oral bioavailability,[1]; clinical trials,orally bioavailable
same,tolerability,[1]; clinical trials,well tolerated
same,efficacy in Parkinson's Disease,[1]; phase I clinical trials,not found to be effective
same,dose up to which no toxicity was observed,[2],up to 750 nmol mitoQ/mouse
"CCCCC/C=C/C=C1/C(=O)C=C[C@@H]1C/C=C\CCCC(=O)O [15d-PGJ2, 15 deoxy-prostaglandin J2]",migration of breast cancer cells,breast cancer cells,inhibits migration
"ICCCC[P+](c1ccccc1)(c1ccccc1)c1ccccc1 [IBTP, iodobutyl triphenylphosphonium iodide]",basal OCR,MDA-MB 231 cells,decrease basal OCR
same,reserve capacity (RC),MDA-MB 231 cells,completely abrogates the reserve capacity
same,sensitization to doxorubicin,[3],did not sensitize
same,cytotoxicity,[4],not cytotoxic
same,constitutive and hypoxia-inducible expression of HIF-1α protein,"HIF-1α; MDA-MB-231, 10 μM, 4 h, normoxia or hypoxia 8 h",inhibits both constitutive and hypoxia-inducible expression of HIF-1α protein
same,basal HIF-1α stabilization,"HIF-1α; MDA-MB-231, data not shown",inhibited basal HIF-1α stabilization both time and dose-dependently
same,reattachment to tissue culture plates after scraping,"[5]; 10 μM, 24 h",failed to reattach
same,inhibition at 10 µM,"[5]; Homo sapiens, MDA-MB-231, read-out: cells whose adhesion is inhibited after detachment",~15%
same,overt cell death,"[6]; 10 μM, 24 h",no evidence of overt cell death
same,clonogenic survival,"[6]; 10 μM, data not shown",significantly decreased clonogenic survival
same,cytotoxicity at higher concentrations,"[6]; concentrations higher than 10 μM, MDA-MB 231 and other cell types",can be cytotoxic
same,covalent adducts with Krebs cycle proteins,[7],forms covalent adducts
